According to US20020103169A1, “Chemical derivatives and use thereof as antitelomerase agents” (priority 2000, published 2002):
Like-named read-outs stand apart in the source and are kept apart here.

Tests used:
[1] = system: A549 cells; assay: Cytotoxic activity on human tumor line, neutral red, 96 hours; format: cell-based
Procedure: The cells in the exponential growth phase were trypsinized, washed in 1X PBS and seeded into 96-well microplates (Costar) in a proportion of 4×10^4 cells/ml (0.2 ml/well). The cells were then incubated for 96 hours in the presence of varying concentrations of product to be tested (10,1, 0.1, and 0.01 μg/ml, each point in quadruplicate). 16 hours before the end of the incubation, 0.02% (final concentration) of neutral red was added to each well. At the end of the incubation, the cells were washed with IX PBS and lysed with 1% of sodium laurylsulphate. The cellular incorporation of the dye, which reflects cell growth, was evaluated by spectrophotometry at a wavelength of 540 nm for each sample, using a Dynatech MR5000 reader machine.

[2] = system: G-quadruplex, oligonucleotide GGGTTAGGGTTAGGGTTAGGG (human telomeric motif); assay: Fluorescence Tm: G-quadruplex stabilization of FAM+DABCYL telomeric oligonucleotide; format: binding; conditions: product 1 μM, oligonucleotide 0.2 μM, 0.1 M LiCl, 10 mM sodium cacodylate pH 7.6; reference Tm 44° C.
Source text: The G-quadruplex stabilizing activity can be determined with a method using the formation of a complex with fluorescein, for which the experimental protocol is described below. The compounds of the present invention can thus be used as a fluorescent probe for determining the presence of G-quadruplexes.
All the oligonucleotides, modified or unmodified, were synthesized by Eurogentec SA, Seraing, Belgium. The FAM+DABCYL oligonucleotide carries the catalogue reference OL-0371-0802 and has the sequence: […] (SEQ ID NO: 1), corresponding to 3.5 repeats of the human telomeric motif (strand rich in G). The fluorescein is attached to the 5′ end and the DABCYL to the 3′ end, via the chemical arms described by Eurogentec. The concentration of the samples was verified by spectrophotometry, recording the absorbance spectrum between 220 nm and 700 nm and using the molar extinction coefficient provided by the supplier. […]
All the measurements of fluorescence were carried out on a Spex Fluorolog DM1B apparatus, using an excitation line width of 1.8 nm and an emission line width of 4.5 nm. […] The oligonucleotide alone was analysed at 20, 30, 40, 50, 60, 70, and 80° C. The emission spectra were recorded using an excitation wavelength of 470 nm. The excitation spectra were recorded using either 515 nm or 588 nm as the emission wavelength. […] When present, this juxtaposition caused the aforementioned phenomenon of extinction of fluorescence, which was used for determining the presence of a G-quadruplex.
A stock solution of oligonucleotide at the strand concentration of 0.2 μM in a 0.1 M LiCl, 10 mM sodium cacodylate buffer, pH 7.6, was prepared beforehand, heated briefly at 90° C. and slowly cooled to 20° C., and then distributed, in 600 μl aliquots, into the fluorescence cuvettes. […]
Each experiment allows the measurement of only one sample. […] During this time, the fluorescence was measured simultaneously at two emission wavelengths (515 nm and 588 nm) using 470 nm as the excitation wavelength. […]

[3] = system: human telomerase; assay: Telomerase activity assay (TRAP) with HL60 cell extract; format: biochemical; conditions: HL60 extract enriched in telomerase activity, TS extension followed by PCR
Procedure: The extract was stored at -80° C. […] ID NO: 3).

Row | Molecule | IC50 [1] | Fluorescence Δ Tm [2] | IC50 [3] | IC50 ([1]; 96 hours incubation, neutral red incorporation, read-out: A459 Cytotox IC50)
1 | 7-Amino-2-(2-amino-1,6-dimethylpyrimidinio-4-yl)-(4-aminophenyl)-10-ethylphenanthridinium bromide [Example 3] | 13400 nM | 9.6 °C | 47 nM | 
2 | CC[n+]1c(-c2ccccc2)c2cc(NN=Nc3cccc(C(=N)N)c3)ccc2c2ccc(N)cc21.Cl.[Cl-] [Example 1, 7-(3-amidinophenyl)diazoamino-2-amino-10-ethyl-9-phenylphenanthridinium chloride hydrochloride] |  | 9.7 °C | 19 nM | 3380 nM
3 | Br.CC[n+]1c(-c2ccccc2)c2c(N=Nc3cccc(C(=N)N)c3)c(N)ccc2c2ccc(N)cc21.[Br-] [Example 2, 8-(3-Amidinophenyl)diazo-2,7-diamino-10-ethyl-9-phenylphenanthridinium bromide hydrobromide] |  | 7.9 °C | 97 nM | 
